Assay results: ChEMBL document CHEMBL4834494, “Discovery of the First Non-cGMP Mimetic Small Molecule Activators of cGMP-Dependent Protein Kinase 1 α (PKG1α)” (ACS Med Chem Lett, 2021)
Values after ≈ are worked out from the molar mass of the structure shown.

Assays:
[1] = target: T1, cGMP-dependent protein kinase 1 (Homo sapiens, UniProt Q13976); assay: Activation of full length PKG1alpha (unknown origin) using Glass-tide peptide substrate incubated for 120 mins followed by addition of ADP-Glo max reagent incubated for 40 mins
T1 sequence (Q13976 whole entry): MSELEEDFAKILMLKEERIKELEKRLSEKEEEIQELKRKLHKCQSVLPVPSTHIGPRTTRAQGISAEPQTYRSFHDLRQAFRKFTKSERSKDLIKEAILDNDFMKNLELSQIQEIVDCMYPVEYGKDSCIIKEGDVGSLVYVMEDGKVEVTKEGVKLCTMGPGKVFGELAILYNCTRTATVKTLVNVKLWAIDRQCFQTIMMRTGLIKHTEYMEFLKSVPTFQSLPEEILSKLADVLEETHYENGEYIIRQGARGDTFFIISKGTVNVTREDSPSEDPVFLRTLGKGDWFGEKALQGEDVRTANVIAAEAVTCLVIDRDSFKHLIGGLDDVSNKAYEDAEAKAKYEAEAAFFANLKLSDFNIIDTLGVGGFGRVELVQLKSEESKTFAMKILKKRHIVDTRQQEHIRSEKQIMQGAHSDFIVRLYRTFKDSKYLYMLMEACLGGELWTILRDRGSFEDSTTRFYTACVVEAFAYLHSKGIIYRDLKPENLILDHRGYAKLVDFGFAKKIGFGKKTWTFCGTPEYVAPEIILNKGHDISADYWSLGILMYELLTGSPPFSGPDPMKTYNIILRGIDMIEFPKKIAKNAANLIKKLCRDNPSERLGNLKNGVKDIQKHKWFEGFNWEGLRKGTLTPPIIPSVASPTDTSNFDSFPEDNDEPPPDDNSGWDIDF

[2] = target: T1, cGMP-dependent protein kinase 1; assay: Activation of PKG1alpha (unknown origin) in human HEK293 cellls assessed as […] phosphorylation at Ser 239 incubated for 3 hrs by HTRF assay; format: cell-based
[3] = Solubility of compound by pH 7 measured for 24 hrs by UPLC analysis; format: physicochemical; details: buffer
[4] = Apparent permeability in dog MDCKII cells; format: ADME, cell-based, Canis lupus familiaris, MDCK-II; details: MDCK

Row | SMILES | EC50 [1] | EC50 [2] | solubility at 24 h [3] | Papp [4]
1 | OC[C@@H](O[C@H]1CCCN(Cc2ccc(-c3nn[nH]n3)cc2)[C@H]1c1ccccc1)c1cc(Cl)cc(Cl)c1 | 131 µM |  |  | 
2 | Clc1cc(Cl)cc(CO[C@H]2CCCN(Cc3ncco3)[C@H]2c2ccccc2)c1 | > 200 µM |  |  | 
3 | Clc1cc(Cl)cc(CO[C@H]2CCCN(Cc3nccs3)[C@H]2c2ccccc2)c1 | > 200 µM |  |  | 
4 | OC[C@@H](O[C@H]1CCCN(Cc2ncc[nH]2)[C@H]1c1ccccc1)c1cc(Cl)cc(Cl)c1 |  | 8.8 µM | 60 µM (≈ 26.8 µg/mL) | 19 ×10⁻⁶ cm/s
5 | OC[C@@H](O[C@H]1CCCN(Cc2ccccc2Cc2nnco2)[C@H]1c1ccccc1)c1cc(Cl)cc(Cl)c1 | 3.7 µM |  |  | 
6 | OC[C@@H](O[C@H]1CCCN(Cc2cccc3nonc23)[C@H]1c1ccccc1)c1cc(Cl)cc(Cl)c1 | 8 µM | 141 µM | 154 µM (≈ 76.8 µg/mL) | 11 ×10⁻⁶ cm/s
7 | O=C(O)c1ccc2c(CN3CCC[C@H](O[C@H](CO)c4cc(Cl)cc(Cl)c4)[C@@H]3c3ccccc3)c[nH]c2c1 | 22 µM | 140 µM | 128 µM (≈ 69.1 µg/mL) | 4 ×10⁻⁶ cm/s
8 | Clc1cc(Cl)cc(CO[C@H]2CCCN(Cc3ccc(-c4nn[nH]n4)cc3)[C@H]2c2ccccc2)c1 | 74 µM |  |  | 
9 | C[C@@H](O[C@H]1OCCN(Cc2n[nH]c(=O)[nH]2)[C@H]1c1ccc(F)cc1)c1cc(C(F)(F)F)cc(C(F)(F)F)c1 [APREPITANT] | > 200 µM |  |  | 
10 | COc1ccc(C(=O)O)cc1CN1CCC[C@H](OCc2cc(Cl)cc(Cl)c2)[C@@H]1c1ccccc1 | 123 µM |  |  | 
11 | CN1CCC[C@H](OCc2cc(Cl)cc(Cl)c2)[C@@H]1c1ccccc1 | > 200 µM |  |  | 
12 | O=C(O)c1cncc(CN2CCC[C@H](OCc3cc(Cl)cc(Cl)c3)[C@@H]2c2ccccc2)c1 | 117 µM |  |  | 
13 | Clc1cc(Cl)cc(CO[C@H]2CCCN(Cc3ncc[nH]3)[C@H]2c2ccccc2)c1 |  | > 164 µM | 120 µM (≈ 50 µg/mL) | 2 ×10⁻⁶ cm/s
14 | COC(=O)Nn1c(C[C@H]2CCC[C@H](OCc3cc(C(F)(F)F)cc(C(F)(F)F)c3)[C@@H]2c2ccccc2)n[nH]c1=O | 4.5 µM | 12 µM | 154 µM (≈ 88.2 µg/mL) | 15 ×10⁻⁶ cm/s
15 | O=C(O)c1ccc(CN2CCC[C@H](O[C@H](CO)c3cc(Cl)cc(Cl)c3)[C@@H]2c2ccccc2)cc1 | 11 µM | 15 µM | 85 µM (≈ 42.5 µg/mL) | 16 ×10⁻⁶ cm/s
16 | COc1cc(C(=O)O)ccc1CN1CCC[C@H](OCc2cc(Cl)cc(Cl)c2)[C@@H]1c1ccccc1 | 62 µM |  |  | 
17 | O=C(O)c1cncc(CN2CCC[C@H](O[C@H](CO)c3cc(Cl)cc(Cl)c3)[C@@H]2c2ccccc2)c1 | 34 µM | 28 µM | 74 µM (≈ 37.1 µg/mL) | 14 ×10⁻⁶ cm/s
18 | CN1CCC[C@H](O[C@H](CO)c2cc(Cl)cc(Cl)c2)[C@@H]1c1ccccc1 | 42 µM |  |  | 
19 | Cn1ccnc1CN1CCC[C@H](OCc2cc(Cl)cc(Cl)c2)[C@@H]1c1ccccc1 | 165 µM |  |  | 

Other lines, results leading:

Row | EC50 [1] | EC50 [2] | solubility at 24 h [3] | Papp [4] | SMILES
20 | > 200 µM |  |  |  | Clc1cc(Cl)cc(CO[C@H]2CCCN(Cc3ccccn3)[C@H]2c2ccccc2)c1
21 | 76 µM |  |  |  | O=C(O)c1ccc(CN2CCC[C@H](OCc3cc(Cl)cc(Cl)c3)[C@@H]2c2ccccc2)cc1
22 | > 200 µM |  |  |  | Clc1cc(Cl)cc(CO[C@H]2CCCN(Cc3ccncc3)[C@H]2c2ccccc2)c1
23 | 76 µM |  |  |  | O=C(O)c1ccc(CN2CCC[C@H](OCc3cc(Cl)cc(Cl)c3)[C@@H]2c2ccccc2)s1
24 | > 200 µM |  |  |  | Clc1cc(Cl)cc(CO[C@H]2CCCN(Cc3ccccc3)[C@H]2c2ccccc2)c1
25 | > 200 µM |  |  |  | O=C(O)c1ccc(CN2CCC[C@H](OCc3cc(Cl)cc(Cl)c3)[C@@H]2c2ccccc2)cn1
26 | 110 µM |  |  |  | Cn1cc(CN2CCC[C@H](OCc3cc(Cl)cc(Cl)c3)[C@@H]2c2ccccc2)cn1
27 | 112 µM |  |  |  | Clc1cc(Cl)cc(CO[C@H]2CCCN(Cc3cccnc3)[C@H]2c2ccccc2)c1
